Results published in patent US9090576B2, “2-substituted-p-quinone derivatives for treatment of oxidative stress diseases” (Edison Pharmaceuticals, Inc., priority 2008, dated 2015).

Columns and labels:
Assay type in all cases: cell-based
[1] = tested on: human dermal fibroblasts from CoQ10 deficient patients; assay: Rescue of BSO-stressed fibroblasts from CoQ10 deficient patients (screen similar to Example A); conditions: Fibroblast, BSO-stressed fibroblasts from CoQ10 deficient patients harboring a CoQ2 mutation, less than about 150 nM, read-out: EC50, protection against CoQ10 deficiency
Description: (§1) A culture with FRDA fibroblasts was started from a 1 ml vial with approximately 500,000 cells stored in liquid nitrogen. Cells were propagated in 10 cm cell culture dishes by splitting every third day in a ratio of 1:3 until nine plates were available. Once confluent, fibroblasts were harvested. For 54 micro titer plates (96 well-MTP) a total of 14.3 million cells (passage eight) were re-suspended in 480 ml medium, corresponding to 100 μl medium with 3,000 cells/well. The remaining cells were distributed in 10 cm cell culture plates (500,000 cells/plate) for propagation. The plates were incubated overnight at 37° C. in an atmosphere with 95% humidity and 5% CO2 to allow attachment of the cells to the culture plate.
(§2) MTP medium (243 μl) was added to a well of the microtiter plate. The test compounds were unfrozen, and 7.5 μl of a 5 mM stock solution was dissolved in the well containing 243 μl medium, resulting in a 150 μM master solution. Serial dilutions from the master solution were made. The period between the single dilution steps was kept as short as possible (generally less than 1 second).
(§3) Plates were kept overnight in the cell culture incubator. The next day, 10 μl of a 10 mM BSO solution were added to the wells, resulting in a 1 mM final BSO concentration. Forty-eight hours later, three plates were examined under a phase-contrast microscope to verify that the cells in the 0% control (wells E1-H1) were clearly dead. The medium from all plates was discarded, and the remaining liquid was removed by gently tapping the plate inversed onto a paper towel.
(§4) 100 μl of PBS containing 1.2 μM Calcein AM were then added to each well. The plates were incubated for 50-70 minutes at room temperature. After that time the PBS was discarded, the plate gently tapped on a paper towel and fluorescence (excitation/emission wavelengths of 485 nm and 525 nm, respectively) was read on a Gemini fluorescence reader. Data was imported into Microsoft Excel (EXCEL is a registered trademark of Microsoft Corporation for a spreadsheet program) and used to calculate the EC50 concentration for each compound.
Compounds of the invention were tested using a screen similar to the one described in Example A, but substituting FRDA cells with cells obtained from CoQ10 deficient patients harboring a CoQ2 mutation. The compounds were tested for their ability to rescue human dermal fibroblasts from CoQ10 deficient patients from oxidative stress.

[2] = tested on: Human dermal fibroblasts from Friedreich's Ataxia patients; assay: Rescue of BSO-stressed FRDA fibroblasts (Calcein AM viability); conditions: BSO-stressed FRDA fibroblasts (GM04078), less than about 150 nM, read-out: EC50, protection against FRDA
In short: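 Patient FRDA fibroblasts (GM04078) seeded at 3,000 cells/well, given serially diluted compound from a 150 μM master solution, then stressed next day with 1 mM BSO.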

[3] = tested on: human dermal fibroblasts from Huntington's patients; assay: Rescue of BSO-stressed fibroblasts from Huntington's patients (screen as Example A); conditions: Fibroblast, BSO-stressed Huntington's fibroblasts (GM 04281), less than about 150 nM, read-out: EC50, protection against Huntington's
In short: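 Coriell Huntington's line GM 04281 plated at 3,000 cells/well and attached overnight at 37 °C. Survival was read by Calcein AM (1.2 μM, 50-70 min, RT) fluorescence at 485/525 nm, giving EC50.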

[4] = tested on: human dermal fibroblasts from LHON patients; assay: Rescue of BSO-stressed fibroblasts from LHON patients (screen as Example A); conditions: Fibroblast, BSO-stressed LHON fibroblasts (GM03858), less than about 150 nM, read-out: EC50, protection against LHON
In short: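 LHON patient fibroblasts (Coriell GM03858) at 3,000 cells/well were pre-treated overnight with compounds serially diluted from a 150 μM master solution. Surviving cells were stained with 1.2 μM Calcein AM for 50-70 min at RT and read by fluorescence (485/525 nm), giving EC50.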

[5] = tested on: human dermal fibroblasts from Parkinson's Disease patients; assay: Rescue of BSO-stressed fibroblasts from Parkinson's Disease patients (screen as Example A); conditions: Fibroblast, BSO-stressed Parkinson's Disease fibroblasts (AG20439), less than about 150 nM, read-out: EC50, protection against PD
Description: as §1, §2, §3, §4
Compounds of the invention were screened as described in Example A, but substituting FRDA cells with Parkinson's Disease (PD) cells obtained from the Coriell Cell Repositories (Camden, N.J.; repository number AG20439). The compounds were tested for their ability to rescue human dermal fibroblasts from Parkinson's Disease patients from oxidative stress.

Measured: EC50

CC1=C(C)C(=O)C(CCCC(=O)N2CCCc3ccccc32)=C(C)C1=O [2-(4-(3,4-dihydroquinolin-1 (2H)-yl)-4-oxobutyl)-3,5,6-trimethylcyclohexa-2,5-diene-1,4-dione]
< 150 nM: [1] | [2] | [3] | [4]

COc1ccc(C2(C(=O)NCCC3=C(C)C(=O)C(C)=C(C)C3=O)CC2)cc1 [1-(4-methoxyphenyl)-N-(2-(2,4,5-trimethyl-3,6-dioxocyclohexa-1,4-dienyl)ethyl)cyclopropanecarboxamide]
< 150 nM: [1] | [2]

CC1=C(C)C(=O)C(CCNC(=O)C(O)c2ccc(C(F)(F)F)cc2)=C(C)C1=O (stereo not shown) [2-hydroxy-2-(4-(trifluoromethyl)phenyl)-N-(2-(2,4,5-trimethyl-3,6-dioxocyclohexa-1,4-dienyl)ethyl)acetamide]
< 150 nM: [1] | [2] | [3] | [4]

COc1ccccc1CC(=O)NCCC1=C(C)C(=O)C(C)=C(C)C1=O [2-(2-methoxyphenyl)-N-(2-(2,4,5-trimethyl-3,6-dioxocyclohexa-1,4-dienyl)ethyl)acetamide]
< 150 nM: [1] | [2]

CC1=C(C)C(=O)C(CCCC(=O)NCCc2ccccc2)=C(C)C1=O [N-phenethyl-4-(2,4,5-trimethyl-3,6-dioxocyclohexa-1,4-dienyl)butanamide]
< 150 nM: [1] | [3] | [4]

CC1=C(C)C(=O)C(CCCC(=O)Nc2cccc(C#N)c2)=C(C)C1=O [N-(3-cyanophenyl)-4-(2,4,5-trimethyl-3,6-dioxocyclohexa-1,4-dienyl)butanamide]
< 150 nM: [1] | [2] | [3] | [4]

CC1=C(C)C(=O)C(CCNC(=O)c2ccc(C#N)cc2)=C(C)C1=O [4-cyano-N-(2-(2,4,5-trimethyl-3,6-dioxocyclohexa-1,4-dienyl)ethyl)benzamide]
< 150 nM: [1] | [2] | [4]

CC1=C(C)C(=O)C(CCNC(=O)C(C)c2ccc(F)cc2)=C(C)C1=O (stereo not shown) [2-(4-fluorophenyl)-N-(2-(2,4,5-trimethyl-3,6-dioxocyclohexa-1,4-dienyl)ethyl)propanamide]
< 150 nM: [1] | [2]

CC1=C(C)C(=O)C(CCNC(=O)CCc2ccc(F)cc2)=C(C)C1=O [3-(4-fluorophenyl)-N-(2-(2,4,5-trimethyl-3,6-dioxocyclohexa-1,4-dienyl)ethyl)propanamide]
< 150 nM: [1] | [2]

CC1=C(C)C(=O)C(CCNC(=O)Cc2cccc3ccccc23)=C(C)C1=O [2-(naphthalen-1-yl)-N-(2-(2,4,5-trimethyl-3,6-dioxocyclohexa-1,4-dienyl)ethyl)acetamide]
< 150 nM: [1] | [2]

CC1=C(C)C(=O)C(CCCC(=O)NCC2(O)CC2)=C(C)C1=O [N-((1-hydroxycyclopropyl)methyl)-4-(2,4,5-trimethyl-3,6-dioxocyclohexa-1,4-dienyl)butanamide]
< 150 nM: [1] | [2] | [3] | [4]

CC1=C(C)C(=O)C(CCNC(=O)C(C)c2ccc(Cl)cc2)=C(C)C1=O (stereo not shown) [2-(4-chlorophenyl)-N-(2-(2,4,5-trimethyl-3,6-dioxocyclohexa-1,4-dienyl)ethyl)propanamide]
< 150 nM: [1] | [2] | [3]

CC1=C(C)C(=O)C(CCC(C)C(=O)Nc2ccccn2)=C(C)C1=O (stereo not shown) [2-methyl-N-(pyridin-2-yl)-4-(2,4,5-trimethyl-3,6-dioxocyclohexa-1,4-dienyl)butanamide]
< 150 nM: [2] | [5] | [3] | [4]

CC1=C(C)C(=O)C(CCNC(=O)C2(c3ccccc3)CC2)=C(C)C1=O [1-phenyl-N-(2-(2,4,5-trimethyl-3,6-dioxocyclohexa-1,4-dienyl)ethyl)cyclopropanecarboxamide]
< 150 nM: [1] | [2] | [4]

CC1=C(C)C(=O)C(CCCC(=O)Nc2ccccn2)=C(C)C1=O [N-(pyridin-2-yl)-4-(2,4,5-trimethyl-3,6-dioxocyclohexa-1,4-dienyl)butanamide]
< 150 nM: [2] | [5] | [3] | [4]

CC1=C(C)C(=O)C(CCNC(=O)N2CCN(Cc3ccccc3)CC2)=C(C)C1=O [4-benzyl-N-(2-(2,4,5-trimethyl-3,6-dioxocyclohexa-1,4-dienyl)ethyl)piperazine-1-carboxamide]
< 150 nM: [2] | [5] | [3] | [4]

CC1=C(C)C(=O)C(CCCC(=O)Nc2ccncc2)=C(C)C1=O [N-(pyridin-4-yl)-4-(2,4,5-trimethyl-3,6-dioxocyclohexa-1,4-dienyl)butanamide]
< 150 nM: [2] | [5] | [3] | [4]

CC1=C(C)C(=O)C(CCNC(=O)NCc2cccnc2)=C(C)C1=O [1-(pyridin-3-ylmethyl)-3-(2-(2,4,5-trimethyl-3,6-dioxocyclohexa-1,4-dienyl)ethyl)urea]
< 150 nM: [2] | [5] | [3] | [4]

CC1=C(C)C(=O)C(CCNC(=O)NCc2ccc(F)cc2)=C(C)C1=O [1-(4-Fluorobenzyl)-3-(2-(2,4,5-trimethyl-3,6-dioxocyclohexa-1,4-dienyl)ethyl)urea]
< 150 nM: [2] | [5] | [3] | [4]

CC1=C(C)C(=O)C(CCNC(=O)N(C)Cc2ccc(Cl)cc2)=C(C)C1=O [1-(4-chlorobenzyl)-1-methyl-3-(2-(2,4,5-trimethyl-3,6-dioxocyclohexa-1,4-dienyl)ethyl)urea]
< 150 nM: [1] | [3] | [4]

CC1=C(C)C(=O)C(CCCC(=O)Nc2cc(F)ccc2F)=C(C)C1=O [N-(2,5-difluorophenyl)-4-(2,4,5-trimethyl-3,6-dioxocyclohexa-1,4-dienyl)butanamide]
< 150 nM: [2] | [5] | [3] | [4]

CC1=C(C)C(=O)C(CCCC(=O)Nc2c(Cl)cccc2Cl)=C(C)C1=O [N-(2,6-dichlorophenyl)-4-(2,4,5-trimethyl-3,6-dioxocyclohexa-1,4-dienyl)butanamide]
< 150 nM: [2] | [5] | [3] | [4]

CC1=C(C)C(=O)C(CCNC(=O)Cc2ccc(Cl)cc2)=C(C)C1=O [2-(4-chlorophenyl)-N-(2-(2,4,5-trimethyl-3,6-dioxocyclohexa-1,4-dienyl)ethyl)acetamide]
< 150 nM: [2] | [5] | [3] | [4]

CC1=C(C)C(=O)C(CCNC(=O)NCc2ccncc2)=C(C)C1=O [1-(pyridin-4-ylmethyl)-3-(2-(2,4,5-trimethyl-3,6-dioxocyclohexa-1,4-dienyl)ethyl)urea]
< 150 nM: [2] | [5] | [3] | [4]

CC1=C(C)C(=O)C(CCNC(=O)NCCN(C)C)=C(C)C1=O [1-(2-(dimethylamino)ethyl)-3-(2-(2,4,5-trimethyl-3,6-dioxocyclohexa-1,4-dienyl)ethyl)urea]
< 150 nM: [2] | [5] | [3] | [4]
